# Data taken from patent publication US9242945B2, “Substituted 2-benzylidene-2H-benzo[b][1,4]thiazin-3(4H)-ones, derivatives thereof, and therapeutic uses thereof” (TEMPLE UNIVERSITY—OF THE COMMONWEALTH SYSTEM OF HIGHER …, priority 2011, dated 2016).
# Where two headings read alike, the source gives them in different places.
# Assays:
# DU145 (prostate cancer) = assay: Cytotoxicity assay, DU145 tumor cells; type: cell-based; details: Homo sapiens, DU-145, 96 h treatment
# Description: (§1) The effect of the compounds of the invention on tumor cells was determined by the assay described by Latham et al., Oncogene 12:827-837 (1996). Tumor cells K562 (chronic myelogenous leukemia; leukemia cell line +ve for Bcr-Abl) or DU145 (prostate cancer) were plated in 12-well dishes at a cell density of 2.5×10^4 cells well. The plated cells were treated 24 hours later with a compound of the invention dissolved in DMSO at multiple concentrations ranging from 0.01 μM to 100 μM. The plates were examined 96 hours later under an inverted microscope, Olympus CK-2 using a 10× objective, and compound activity was noted by physical observation. When necessary, the total number of viable cells was determined by trypsinizing the wells and counting the number of viable cells, as determined by trypan blue exclusion, using a hemacytometer. Where “Lower” and “Upper” value are provided in Table 5, the IC50 was determined to be within that range. When only a “Lower” value is provided and no “Upper” value is listed, the IC50 was that value, or less than or greater than that value, as set forth in the Table.
# (§2) The cytotoxicity of Compound 42, (Z)-6-((2,6-dichlorobenzyl)sulfonyl)-2-(4-hydroxy-3-nitrobenzylidene)-2H-benzo[b][1,4]thiazin-3(4H)-one, was determined according the assay method of Example 7 on the prostate (androgen dependent or independent), breast and pancreatic cancer cell lines listed in Table 6A, below, and the additional cell lines listed in Table 6B, below. The human mesenchymal stem cell line HMSC.hTERT and normal human fibroblast cell line HFL was included in the test.
# [1] = test system: K562 (chronic myelogenous leukemia; leukemia cell line +ve for Bcr-Abl); assay: Cytotoxicity assay, K562 tumor cells; type: cell-based; details: Homo sapiens, K562, 96 h treatment
# Description: as §1, §2
# [2] = lower limit of the IC50 range, or the IC50 itself (or its bound) where no Upper value is listed, read-out: DU145 IC50 (μm) Lower (μm)
# [3] = upper limit of the IC50 range, read-out: DU145 IC50 (μm) Upper (μm)
# [4] = lower limit of the IC50 range, or the IC50 itself (or its bound) where no Upper value is listed, read-out: K562 IC50 (μm) Lower (μm)
# [5] = upper limit of the IC50 range, read-out: K562 IC50 (μm) Upper (μm)
Compound,IC50 (DU145 (prostate cancer); [2]),IC50 (DU145 (prostate cancer); [3]),"IC50 [1, 4]","IC50 [1, 5]"
"O=C1Nc2cc(S(=O)(=O)Cc3c(Cl)cccc3Cl)ccc2S/C1=C\c1c(F)cc(F)cc1F [Compound 31, (Z)-6-((2,6-dichlorobenzyl)sulfonyl)-2-(2,4,6-trifluorobenzylidene)-2H-benzo[b][1,4]thiazin-3(4H)-one]",≥ 1000 nM,≤ 10000 nM,≥ 1000 nM,≤ 10000 nM
"O=C1Nc2cc(S(=O)(=O)Cc3c(Cl)cccc3Cl)ccc2S/C1=C\c1ccc(Br)cc1 [Compound 18, (Z)-2-(4-bromobenzylidene)-6-((2,6-dichlorobenzyl)sulfonyl)-2H-benzo[b][1,4]thiazin-3(4H)-one]",≥ 1000 nM,≤ 10000 nM,≥ 1000 nM,≤ 10000 nM
"CN1CCN(c2ccc(/C=C3\Sc4ccc(S(=O)(=O)Cc5c(Cl)cccc5Cl)cc4NC3=O)cc2)CC1 [Compound 13, (Z)-6-((2,6-dichlorobenzyl)sulfonyl)-2-(4-(4-methylpiperazin-1-yl)benzylidene)-2H-benzo[b][1,4]thiazin-3(4H)-one]",≥ 1000 nM,≤ 10000 nM,≥ 500 nM,≤ 1000 nM
"O=C1Nc2cc(S(=O)(=O)Cc3c(Cl)cccc3Cl)ccc2S/C1=C\c1ccc(F)cc1F [Compound 30, (Z)-6-((2,6-dichlorobenzyl)sulfonyl)-2-(2,4-difluorobenzylidene)-2H-benzo[b][1,4]thiazin-3(4H)-one]",≥ 1000 nM,≤ 10000 nM,≥ 1000 nM,≤ 10000 nM
"CC(=O)Oc1ccc(/C=C2\Sc3ccc(S(=O)(=O)Cc4c(Cl)cccc4Cl)cc3NC2=O)cc1[N+](=O)[O-] [Compound 8, (Z)-4-((6-((2,6-dichlorobenzyl)sulfonyl)-3-oxo-3,4-dihydro-2H-benzo[b][1,4]thiazin-2-ylidene)methyl)-2-nitrophenyl acetate]",100 nM,–,75 nM,–
"CSc1nccc(/C=C2\Sc3ccc(S(=O)(=O)Cc4c(Cl)cccc4Cl)cc3NC2=O)n1 [Compound 36, (Z)-6-((2,6-dichlorobenzyl)sulfonyl)-2-((2-(methylthio)pyrimidin-4-yl)methylene)-2H-benzo[b][1,4]thiazin-3(4H)-one]",2000 nM,–,> 2500 nM,–
"COc1ccc2c(c1)S/C(=C\c1ccc(OC(C)=O)c([N+](=O)[O-])c1)C(=O)N2 [Compound 2, (Z)-4-((7-methoxy-3-oxo-3,4-dihydro-2H-benzo[b][1,4]thiazin-2-ylidene)methyl)-2-nitrophenyl acetate]",≥ 1000 nM,≤ 10000 nM,≥ 1000 nM,≤ 10000 nM
"O=C1Nc2cc(S(=O)(=O)Cc3c(Cl)cccc3Cl)ccc2S/C1=C\c1ccc(Cl)c([N+](=O)[O-])c1 [Compound 29, (Z)-2-(4-chloro-3-nitrobenzylidene)-6-((2,6-dichlorobenzyl)sulfonyl)-2H-benzo[b][1,4]thiazin-3(4H)-one]",≥ 500 nM,≤ 1000 nM,≥ 1000 nM,≤ 10000 nM
"COc1ccc(/C=C2\Sc3ccc(S(=O)(=O)Cc4c(Cl)cccc4Cl)cc3NC2=O)cc1[N+](=O)[O-] [Compound 11, (Z)-6-((2,6-dichlorobenzyl)sulfonyl)-2-(4-methoxy-3-nitrobenzylidene)-2H-benzo[b][1,4]thiazin-3(4H)-one]",≥ 250 nM,≤ 500 nM,≥ 250 nM,≤ 500 nM
"Nc1ccc(/C=C2\Sc3ccc(S(=O)(=O)Cc4c(Cl)cccc4Cl)cc3NC2=O)cc1 [Compound 15, (Z)-2-(4-aminobenzylidene)-6-((2,6-dichlorobenzyl)sulfonyl)-2H-benzo[b][1,4]thiazin-3(4H)-one]",40 nM,–,30 nM,–
"O=C1Nc2cc(S(=O)(=O)Cc3c(Cl)cccc3Cl)ccc2S/C1=C\c1ccc(-c2nn[nH]n2)cc1 [Compound 39, (Z)-2-(4-(2H-tetrazol-5-yl)benzylidene)-6-((2,6-dichlorobenzyl)sulfonyl)-2H-benzo[b][1,4]thiazin-3(4H)-one]",≥ 1000 nM,≤ 10000 nM,≥ 1000 nM,≤ 10000 nM
